Bounds are passed on as bounds.

For the first assay, the target named is T1, CETP (Homo sapiens, UniProt P11597).
T1 construct: made in house; host or cells: CHO cells (serum-free conditioned medium)
T1 sequence (P11597 18-493): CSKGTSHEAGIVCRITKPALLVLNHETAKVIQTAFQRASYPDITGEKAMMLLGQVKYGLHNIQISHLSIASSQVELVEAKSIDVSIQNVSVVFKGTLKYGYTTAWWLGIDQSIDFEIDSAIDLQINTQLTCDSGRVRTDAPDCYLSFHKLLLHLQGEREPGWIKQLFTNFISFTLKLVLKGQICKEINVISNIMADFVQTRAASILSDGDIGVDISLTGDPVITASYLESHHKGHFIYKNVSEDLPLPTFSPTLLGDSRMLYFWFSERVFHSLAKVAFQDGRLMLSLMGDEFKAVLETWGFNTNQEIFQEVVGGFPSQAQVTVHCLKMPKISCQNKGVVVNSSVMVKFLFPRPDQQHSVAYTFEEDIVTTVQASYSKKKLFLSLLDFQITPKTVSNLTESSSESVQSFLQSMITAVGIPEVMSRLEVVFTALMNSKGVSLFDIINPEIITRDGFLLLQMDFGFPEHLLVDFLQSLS
The assay can be described thus: CETP activity in vitro: transfer of [3H]CE from HDL donor to LDL acceptor particles. It is filed as biochemical. To be noted: @ 100 μm; footnotes A and B of Table 6. Put shortly: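 CETP from conditioned medium of CETP-transfected CHO cells incubated with [3H]CE-labelled HDL donor and LDL acceptor, pH 7.4 Tris buffer with NaCl, EDTA and 1% BSA, 2 h at 37 °C. LDL precipitated with dextran sulfate/MgCl2, filtered, and transferred radioactivity counted; IC50 reported.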
Take `COC(=O)c1c(C(F)F)nc(C(F)(F)F)c(CSc2ccc(NC(C)=O)cc2)c1CC(C)C` [Compound 204, Methyl 5-[(4-(Acetylamino)phenyl)thiomethyl]-2-(difluoromethyl)-4-(2-methylpropyl)-6-(trifluoromethyl)-3-pyridinecarboxylate]: the CE transferred entry is reported as “^B80% CE transferred @ 100 μm”.

The assay is the same for the next values; noted with them: Table 6, compounds of formula T-6; read-out: IC50.
`COC(=O)c1c(C(F)F)nc(C(F)(F)F)c(CSc2c(Cl)cccc2Cl)c1CC(C)C` [Compound 201, Methyl 5-[(2,6-Dichlorophenyl)thiomethyl]-2-(difluoromethyl)-4-(2-methylpropyl)-6-(trifluoromethyl)-3-pyridinecarboxylate]: the half-inhibitory concentration (IC50) (as a rule, the point on the concentration scale where inhibition reaches its midpoint) came out at 30 µM.

Consider `COC(=O)c1c(C(F)F)nc(C(F)(F)F)c(CSc2cccc3cccnc23)c1CC(C)C` [Compound 202, Methyl 5-[(Quinolin-8-yl)thiomethyl]-2-(difluoromethyl)-4-(2-methylpropyl)-6-(trifluoromethyl)-3-pyridinecarboxylate], for which the IC50 is 80 µM. Turning to `COC(=O)c1c(C(F)F)nc(C(F)(F)F)c(CSc2ncccn2)c1CC(C)C` [Compound 203, Methyl 5-[(Pyrimidin-2-yl)thiomethyl]-2-(difluoromethyl)-4-(2-methylpropyl)-6-(trifluoromethyl)-3-pyridinecarboxylate], the IC50 is 70 µM. Turning to `COC(=O)c1c(C(F)F)nc(C(F)(F)F)c(CSc2ccc(NC(C)=O)cc2)c1CC(C)C` [Compound 204, Methyl 5-[(4-(Acetylamino)phenyl)thiomethyl]-2-(difluoromethyl)-4-(2-methylpropyl)-6-(trifluoromethyl)-3-pyridinecarboxylate], the concentration for half-maximal inhibition (IC50) is > 100 µM. In the case of `COC(=O)c1c(C(F)F)nc(C(F)(F)F)c(CSc2nc3ccccc3o2)c1CC(C)C` [Compound 205, Methyl 5-[(Benzoxazol-2-yl)thiomethyl]-2-(difluoromethyl)-4-(2-methylpropyl)-6-(trifluoromethyl)-3-pyridinecarboxylate], the IC50 amounted to 20 µM. With `COC(=O)c1c(C(F)F)nc(C(F)(F)F)c(CSc2ccc(Br)cc2OC(F)(F)F)c1CC(C)C` [Compound 206, Methyl 5-[(4-Bromo-2-(trifluoromethoxy)phenyl)thiomethyl]-2-(difluoromethyl)-4-(2-methylpropyl)-6-(trifluoromethyl)-3-pyridinecarboxylate], the IC50 amounted to 50 µM. In the case of `COC(=O)c1c(C(F)F)nc(C(F)(F)F)c(CSc2ccccc2OC)c1CC(C)C` [Compound 208, Methyl 5-[(2-Methoxyphenyl)thiomethyl]-2-(difluoromethyl)-4-(2-methylpropyl)-6-(trifluoromethyl)-3-pyridinecarboxylate], the IC50 is 60 µM. Turning to `COC(=O)c1c(C(F)F)nc(C(F)(F)F)c(CSc2nc3ccc(C)cc3[nH]2)c1CC(C)C` [Compound 209, Methyl 5-[(5-Methylbenzimidazol-2-yl)thiomethyl]-2-(difluoromethyl)-4-(2-methylpropyl)-6-(trifluoromethyl)-3-pyridinecarboxylate], the 50% inhibitory concentration (IC50) turned out to be 10 µM. For the compound `COC(=O)c1c(C(F)F)nc(C(F)(F)F)c(CSc2nc3ccccc3[nH]2)c1CC(C)C` [Compound 210, Methyl 5-[(Benzimidazol-2-yl)thiomethyl]-2-(difluoromethyl)-4-(2-methylpropyl)-6-(trifluoromethyl)-3-pyridinecarboxylate], the concentration for half-maximal inhibition (IC50) was 20 µM. Turning to `COC(=O)c1c(C(F)F)nc(C(F)(F)F)c(CSc2cccc(OC)c2)c1CC(C)C` [Compound 211, Methyl 5-[(3-Methoxyphenyl)thiomethyl]-2-(difluoromethyl)-4-(2-methylpropyl)-6-(trifluoromethyl)-3-pyridinecarboxylate], the concentration for half-maximal inhibition (IC50) was 45 µM. Same read-out and setting: for `COC(=O)c1c(C(F)F)nc(C(F)(F)F)c(CSc2nc3ccccc3s2)c1CC(C)C` [Compound 212, Methyl 5-[(Benzothiazol-2-yl)thiomethyl]-2-(difluoromethyl)-4-(2-methylpropyl)-6-(trifluoromethyl)-3-pyridinecarboxylate] the value was 15 µM; for `COC(=O)c1c(C(F)F)nc(C(F)(F)F)c(CSc2cccc(Cl)c2)c1CC(C)C` [Compound 213, Methyl 5-[(3-Chlorophenyl)thiomethyl]-2-(difluoromethyl)-4-(2-methylpropyl)-6-(trifluoromethyl)-3-pyridinecarboxylate], 15 µM.

The values above are taken from patent publication US6794396B2, “Substituted pyridines useful for inhibiting cholesteryl ester transfer protein activity” (Pharmacia Corporation, priority 1998, dated 2004).
